Where two headings read alike, the source gives them in different places. One block for each compound: values may come before it.
Assays:
[1] = Long-term solution stability (visual crystallization/precipitation time); format: physicochemical; conditions: for time until solution crashes out: solution of 1%
Procedure: (§1) Solutions were prepared by mixing one or more steviol glycoside component in purified water at ambient temperature. Solubility enhancers, preservatives, or ethanol were included only where expressly indicated and, when used, were added to the initial mixture prior to heating and dissolution. The mixtures were premixed and then subsequently heated via heat block or oven. Solutions took approximately one or two minutes to reach the target temperature, and then were maintained at the target temperature at least until complete dissolution of solids. Dissolution of solids was monitored visually during heating. After the heating period, fully dissolved solutions were permitted to cool to room temperature and were monitored for initial precipitation.
Solutions were further monitored for stability over periods of hours, days, weeks, and longer. Multiple techniques were utilized to evaluate stability. […] Solutions were also evaluated by recovering dissolved solids and then calculating percent recovery. If necessary, the solutions were filtered to remove undissolved material to assure that percent recovery reflected only dissolved steviol glycosides.
The rebaudioside M and A blend was further observed hourly for the first several hours, then monitored daily to evaluate long-term stability. Steviol glycoside binary blends in aqueous solvent (1%) were prepared from as an […].
Amounts of rebaudioside M and rebaudioside A in varying ratios were combined with purified water at room temperature and then heated to 85° C. with a heating block to effect dissolution. For example, for batches formulated to provide a concentration of about 10% DS, approximately 25 mg of each of rebaudioside M and rebaudioside A were dissolved in 500 μL of purified water. Samples were monitored until crystallization occurred or for at least 40 days. Solutions that remained clear and free of visible precipitation are identified in the tables below.
Steviol glycoside solutions of rebaudioside M and rebaudioside A were tested to determine if non-aqueous solvent was beneficial or detrimental to solution stability. Ingredients were combined in purified water at room temperature then heated to 85° C. with a heating block to effect dissolution. The solution was allowed to cool to ambient temperature, and then visually monitored for precipitation.

[2] = Initial solubility in aqueous solution (visual dissolution on heating); format: physicochemical
Procedure: as §1
Various individual steviol glycosides were tested to evaluate initial solubility in aqueous solution as well as the long-term stability in solution. Ingredients were combined in purified water at room temperature then heated to 85° C. with a heating block to effect dissolution. […]

[3] = cited from earlier work
[4] = Aqueous solubility (background values); format: physicochemical; conditions: heating in near boiling water for 2 hours
[5] = conventional formulations, aqueous solution at 25° C., WO 2017/120480 A1
[6] = 0.49% DS, after dissolution at 85° C.

Crystallization Time ([1]; 0.33% DS, after dissolution at 85° C.): <72 h
Soluble? [2]: Y
Compound: C=C1C[C@@]23CC[C@H]4[C@@](C)(CCC[C@@]4(C)C(=O)O[C@@H]4O[C@H](CO)[C@@H](O)[C@H](O[C@@H]5O[C@H](CO)[C@@H](O)[C@H](O)[C@H]5O)[C@H]4O[C@@H]4O[C@H](CO)[C@@H](O)[C@H](O)[C@H]4O)[C@@H]2CC[C@]1(O[C@@H]1O[C@H](CO)[C@@H](O)[C@H](O[C@@H]2O[C@H](CO)[C@@H](O)[C@H](O)[C@H]2O)[C@H]1O[C@@H]1O[C@H](CO)[C@@H](O)[C@H](O)[C@H]1O)C3 [M (RM01), rebaudioside M]

time until solution crashes out [1]: less than an hour
Compound: C=C1C[C@@]23CC[C@H]4[C@@](C)(CCC[C@@]4(C)C(=O)O[C@@H]4O[C@H](CO)[C@@H](O)[C@H](O[C@@H]5O[C@H](CO)[C@@H](O)[C@H](O)[C@H]5O)[C@H]4O[C@@H]4O[C@H](CO)[C@@H](O)[C@H](O)[C@H]4O)[C@@H]2CC[C@]1(O[C@@H]1O[C@H](CO)[C@@H](O)[C@H](O[C@@H]2O[C@H](CO)[C@@H](O)[C@H](O)[C@H]2O)[C@H]1O[C@@H]1O[C@H](CO)[C@@H](O)[C@H](O)[C@H]1O)C3 [rebaudioside M]
dissolved content in aqueous solution [3, 5]: about 0.1 wt %
dissolved concentration in aqueous solution ([3]; room temperature, freeze or spray dried, WO '480, stability over time not reported): 0.5 wt %

Crystallization Time ([1]; 0.47% DS, heated to 85° C.): Immediate
Compound: rebaudioside B

Crystallization Time [1, 6]: <1 h
Soluble? [2]: Y
Compound: C=C1C[C@@]23CC[C@H]4[C@@](C)(CCC[C@@]4(C)C(=O)O[C@@H]4O[C@H](CO)[C@@H](O)[C@H](O[C@@H]5O[C@H](CO)[C@@H](O)[C@H](O)[C@H]5O)[C@H]4O[C@@H]4O[C@@H](C)[C@H](O)[C@@H](O)[C@H]4O)[C@@H]2CC[C@]1(O[C@@H]1O[C@H](CO)[C@@H](O)[C@H](O[C@@H]2O[C@H](CO)[C@@H](O)[C@H](O)[C@H]2O)[C@H]1O[C@@H]1O[C@H](CO)[C@@H](O)[C@H](O)[C@H]1O)C3 [N, rebaudioside N]

appearance (FIG. 3, bottom) ([1]; about 10% DS, only rebaudioside A): intense precipitation
time until solution crashes out [1]: ≤ 72 h
Compound: C=C1C[C@@]23CC[C@H]4[C@@](C)(CCC[C@@]4(C)C(=O)O[C@@H]4O[C@H](CO)[C@@H](O)[C@H](O)[C@H]4O)[C@@H]2CC[C@]1(O[C@@H]1O[C@H](CO)[C@@H](O)[C@H](O[C@@H]2O[C@H](CO)[C@@H](O)[C@H](O)[C@H]2O)[C@H]1O[C@@H]1O[C@H](CO)[C@@H](O)[C@H](O)[C@H]1O)C3 [rebaudioside A]
dissolved content in aqueous solution ([3]; purified, in water at 25° C., WO 2012/082587 A2): about 0.8 wt %

Crystallization Time ([1]; 0.48% DS (Reb D), 0.5% DS (Total)): <2 h
Crystallization Time ([1]; 0.48% DS, after dissolution at 85° C.): <2 h
dissolution ([2]; 1% DS in water, heated to 85° C. for 20 minutes, cooled to room temperature (FIG. 1)): failed to dissolve
dissolution ([2]; 1% DS in water, heated to 85° C. for 20 minutes, cooled to room temperature (FIG. 1), listed as Reb D): cannot achieve dissolution
concentration temporarily dissolved [4]: 0.8 wt %
Compound: C=C1C[C@@]23CC[C@H]4[C@@](C)(CCC[C@@]4(C)C(=O)O[C@@H]4O[C@H](CO)[C@@H](O)[C@H](O)[C@H]4O[C@@H]4O[C@H](CO)[C@@H](O)[C@H](O)[C@H]4O)[C@@H]2CC[C@]1(O[C@@H]1O[C@H](CO)[C@@H](O)[C@H](O[C@@H]2O[C@H](CO)[C@@H](O)[C@H](O)[C@H]2O)[C@H]1O[C@@H]1O[C@H](CO)[C@@H](O)[C@H](O)[C@H]1O)C3 [D, rebaudioside D]
dissolved content in aqueous solution [3, 5]: about 0.05 wt %

Crystallization Time ([1]; 0.53% DS, after dissolution at 85° C.): <2 h
Soluble? [2]: Y
dissolution ([2]; 1% solution, purified water, heated to 85° C.): failed to dissolve
Compound: C=C1C[C@@]23CC[C@H]4[C@@](C)(CCC[C@@]4(C)C(=O)O[C@@H]4O[C@H](CO)[C@@H](O)[C@H](O)[C@H]4O[C@@H]4O[C@@H](C)[C@H](O)[C@@H](O)[C@H]4O)[C@@H]2CC[C@]1(O[C@@H]1O[C@H](CO)[C@@H](O)[C@H](O[C@@H]2O[C@H](CO)[C@@H](O)[C@H](O)[C@H]2O)[C@H]1O[C@@H]1O[C@H](CO)[C@@H](O)[C@H](O)[C@H]1O)C3 [J, rebaudioside J]

Crystallization Time [1, 6]: 336 h
Compound: C=C1C[C@@]23CC[C@H]4[C@@](C)(CCC[C@@]4(C)C(=O)O[C@@H]4O[C@H](CO)[C@@H](O)[C@H](O)[C@H]4O[C@@H]4O[C@H](CO)[C@@H](O)[C@H](O)[C@H]4O)[C@@H]2CC[C@]1(O[C@@H]1O[C@H](CO)[C@@H](O)[C@H](O)[C@H]1O[C@@H]1O[C@H](CO)[C@@H](O)[C@H](O)[C@H]1O)C3 [E, rebaudioside E]

Source: patent US20250194651A1, “STEVIOL GLYCOSIDE CONCENTRATES AND HIGHLY SOLUBLE STEVIOL GLYCOSIDES” (CARGILL, INCORPORATED, priority 2022, published 2025)
